Legend:
[1] = test system: skin injury following radiotherapy in patients with head and neck cancer; details: mucoadhesive buccal tablet 50 μg once daily, from 1 to 3 days before radiotherapy until its end, up to 8 weeks; 50 to 70 Gray plus platinum-based chemotherapy; placebo group 38.7%
Procedure: These patients received, within 15 weeks after curative surgery, a cumulative radiation dose of radiation ranging from 50 to 70 Gray in oral cavity, based on a daily dosing between 1.8 and 2.2 Gy, combined with platinum-based chemotherapy, based on a weekly or tri-weekly cycle. Clonidine was administered in the form of a mucoadhesive tablet that was applied into the mouth, on the upper gum, for about 30 seconds, after which it remained in place for several hours. The treatment with clonidine hydrochloride started from 1 to 3 days before radiotherapy until the end of radiotherapy, for up to 8 weeks. Patients were evaluated twice a week during the radiotherapy period, then one month after stop of radiotherapy.

radiation skin injury = details: Journal of Clinical Oncology, Vol. 29, No 20, 2011; even worsened skin adverse reactions; cited from earlier work

Row | Compound | patients showing skin injury after treatment [1] [%] | effect on radiation skin injury compared to a placebo (radiation skin injury)
1 | Cl.Clc1cccc(Cl)c1NC1=NCCN1 [clonidine hydrochloride] | 25.5 | 
2 | palifermin |  | not to improve radiation skin injury compared to a placebo

— patent US11090290B2, “Clonidine and/or clonidine derivatives for use in the prevention of skin injury resulting from radiotherapy” (MONOPAR THERAPEUTICS INC., priority 2015, dated 2021)
